B1: GCase polypeptide: myc-tagged GCase polypeptide expression construct transfected into Hela cells (protein, UniProt P04062 40-536, looked up)
Lysosomal acid …: ARPCIPKSFGYSSVVCVCNATYCDSFDPPTFPALGTFSRYESTRSGRRMELSMGPIQANHTGTGLLLTLQPEQKFQKVKGFGGAMTDAAALNILALSPPAQNLLLKSYFSEEGIGYNIIRVPMASCDFSIRTYTYADTPDDFQLHNFSLPEEDTKLKIPLIHRALQLAQRPVSLLASPWTSPTWLKTNGAVNGKGSLKGQPGDIYHQTWARYFVKFLDAYAEHKLQFWAVTAENEPSAGLLSGYPFQCLGFTPEHQRDFIARDLGPTLANSTHHNVRLLMLDDQRLLLPHWAKVVLTDPEAAKYVHGIAVHWYLDFLAPAKATLGETHRLFPNTMLFASEACVGSKFWEQSVRLGSWDRGMQYSHSIITNLLYHVVGWTDWNLALNPEGGPNWVRNFVDSPIIVDITKDTFYKQPMFYHLGHFSKFIPEGSQRVGLVASQKNDLDAVALMHPDGSAVVVVLNRSSKDVPLTIKDPAVGFLETISPGYSIHTYLWRRQ
modifications: myc tag
notes: myc-tagged GCase polypeptide expression construct transfected into Hela cells

Key:
α-synuclein [1] = assay: α-synuclein solubility and oligomers (sequential extraction/western blot, native SEC, immunostaining) in primary cortical neurons; type: cell-based
Procedure: (§1) As discussed above, the increased α-synuclein levels and toxicity that occur with GCase polypeptide depletion may result from generalized lysosomal inhibition or may be due to alterations in GlcCer lipid metabolism. To distinguish between these two possibilities, in this Example, the lysosomal protein degradation was inhibited with leupeptin in WT α-synuclein-expressing neurons and the neurotoxicity was assessed. […] Thus, despite similar effects on the total α-synuclein levels by leupeptin or GCase polypeptide KD, only GCase polypeptide KD increased the steady-state levels of soluble HMW α-synuclein. In this Example, sequential extraction followed by SDS-PAGE/Coomassie brilliant blue (CBB) staining was used to determine the effect of leupeptin treatment on the solubility of total cellular proteins.
(§2) Cells were harvested in Triton X-100 lysis buffer. The extracts were centrifuged at 100,000×g for 30 min. The pellets were extracted in 2% SDS buffer. Similar procedures were utilized for mouse and human brain tissues, using 20 volumes of Triton X-100 lysis buffer. Samples were loaded onto SDS-PAGE gels or subjected to native SEC followed by western blot analysis as described below (Mazzulli et al., J. Neurosci. 26:10068, 2006).
Infected cortical cells (8,000,000 cells/10 cm plate) were harvested in Triton X-100 lysis buffer and 100,000×g Triton X-100 soluble lysate was loaded onto a Superdex 200 HR 10/300 column (GE healthcare) as described previously (Mazzulli et al., J. Neurosci. 26:10068, 2006). Quantification of α-synuclein oligomers has been described in detail previously (Tsika et al., J. Neurosci. 30: 3409, 2010).
Cortical cells grown on poly-D-lysine coated coverslips in 12 well clusters were washed very briefly in warm PBS followed by rapid fixation in PBS-buffered 4% paraformaldehyde (w/v) for 15 min. Cells were incubated with PBS containing 0.3% (v/v) Triton X-100 overnight at 4° C., then blocked in 2% (w/v) bovine serum albumin (BSA) (Sigma-Aldrich, # A-7906) and 10% normal goat serum (Jackson Immunoresearch Laboratories, #005-000-121) in PBS-Triton X-100 for 1 hr. Primary antibodies were diluted into blocking buffer (see above for dilutions), incubated overnight at 4° C., and washed extensively in PBS-Triton X-100. […] Coverslips were mounted onto glass slides with 10 μl of 4,6-diamidino-2-phenylindole dihydrochloride (DAPI)-containing Fluoromount G (Southern Biotech, #0100-20) and visualized with a fluorescence microscope. For quantification of α-synuclein and LC3 immunostaining, pixels from equal-time exposed images were quantified using Adobe Photoshop software CS2 (Adobe Systems), and normalized to DAPI.

primary cortical neurons [2] = assay: Neurotoxicity assessment (neurofilament immunostaining, neuronal volume) in primary cortical neurons expressing human WT α-synuclein; type: cell-based
total cellular proteins = assay: Total cellular protein solubility by sequential extraction, SDS-PAGE and Coomassie brilliant blue staining; type: cell-based, mouse; settings: leupeptin treatment
Procedure: as §1, §2

LC3-II = LC3-II western blot in primary cortical neurons; type: cell-based, mouse; settings: leupeptin compared with GCase polypeptide KD
Procedure: as §1
Most materials for SDS-PAGE were obtained from Invitrogen (NuPAGE system). […] Blots were blocked in Odyssey blocking buffer (Li-Cor biosciences) containing 0.05% Tween, or 5% non-fat dry milk in TBS-T 0.2%, followed by incubation with primary antibodies (see above for dilutions), and detected with anti-mouse or -rabbit IgG conjugated to IRDye 680 or 800 (1:10,000, Li-Cor biosciences). […] Any nonspecific bands detected were not included in densitometric analyses. […]

Hela cells = assay: Lysosomal proteolysis by radioactive pulse-chase in transfected Hela cells; type: cell-based
Procedure: (§3) Further in this Example, it was assessed whether GCase polypeptide overexpression had the ability to directly enhance lysosomal proteolysis in a non-neuronal cell line. Hela cells were transfected with a myc-tagged GCase polypeptide expression construct and lysosomal proteolysis was assessed by radioactive pulse-chase (FIG. 17A). […] This effect was also confirmed through a different assay, by measuring the effect of GCase polypeptide overexpression on the activity of the lysosomal protease cathepsin B. A cell-permeable fluorescent-tagged cathepsin B substrate (MAGIC RED cathepsin detection kit, Immunochemistry Technologies) was added to transfected Hela cells, and degradation of this substrate was determined in living cells after substrate wash-out.

primary cortical neurons [3] = assay: Proteolysis of long-lived proteins by radioactive pulse-chase in primary cortical neurons; type: cell-based, mouse; settings: added to GCase polypeptide KD
Procedure: In this Example, a test was conducted to determine whether GCase polypeptide KD affects a lysosomal degradation pathway. In this test, neurons were treated with the well-established lysosomal inhibitors ammonium chloride (NH4Cl) and leupeptin.
Proteolysis of long-lived proteins was determined by radioactive pulse-chase using ^3H-leucine. This procedure was performed as described previously (Kaushik et al. Methods Enzymol. 452: 297, 2009). Briefly, cortical cells were grown in 24 well clusters seeded at 33000 cells/well and infected at moi 3 with scrb or GCase polypeptide shRNA expressing lentiviral vectors. On dpi 4, ^3H-leucine (PerkinElmer, # NET460A001 MC, final 5 μCi/ml) was added in standard neurobasal medium containing B27 for 2 days to trace label proteins. […] Samples were centrifuged at 20,000×g for 20 min, 4° C., and the radioactivity was measured in 5 ml of scintillation cocktail using a Beckman LS 1701 liquid scintillation counter (Beckman Instruments). Precipitated protein pellets were extracted in 200 μl of Na deoxycholate, 0.1 M NaOH, and radioactivity was determined. Percent proteolysis was calculated as described in detail elsewhere (Kaushik et al. Methods Enzymol. 452: 297, 2009). […]

[4] = system: α-synuclein/LAMP1 colocalized puncta; assay: Immunostaining of α-synuclein and LAMP1, condensed nuclei count in primary neurons; type: cell-based
Procedure: Next in this Example, the effect of GlcCer on α-synuclein fibril formation was assessed under acidic conditions (pH 5.0, 37° C.), to simulate a lysosome-like environment in vitro because the neuronal culture data had indicated increased colocalization of α-synuclein with LAMP1 upon GCase polypeptide KD (FIGS. 5H and 5I). […] An increased frequency of condensed nuclei in WT α-synuclein/GC-depleted cells, compared to WT α-synuclein/scrb shRNA cells (panel H), was consistent with a decline in neuronal viability. […] The α-synuclein detected in P2 was in the form of a T-sol 18 kDa monomer (panel I, left), as well as T-insoluble monomer and multimers (panel I, right).
Cortical cells grown on poly-D-lysine coated coverslips in 12 well clusters were washed very briefly in warm PBS followed by rapid fixation in PBS-buffered 4% paraformaldehyde (w/v) for 15 min. […] Coverslips were mounted onto glass slides with 10 μl of 4,6-diamidino-2-phenylindole dihydrochloride (DAPI)-containing Fluoromount G (Southern Biotech, #0100-20) and visualized with a fluorescence microscope. For quantification of α-synuclein and LC3 immunostaining, pixels from equal-time exposed images were quantified using Adobe Photoshop software CS2 (Adobe Systems), and normalized to DAPI.

α-synuclein [5] = assay: α-synuclein levels by western blot in human midbrain iPS dopamine neurons; type: cell-based; settings: lentiviral overexpression, moi 5, human PD dopamine neurons (Coriell line ND27760, SNCA triplication)
Excerpt: In this Example, it was investigated whether enhancement of lysosomal enzyme trafficking through stimulation of the secretory pathway would result in increased lysosomal function and reduction of α-synuclein. Therefore, in this Example the small GTPase Rab1a polypeptide was overexpressed by lentiviral infection in iPS neurons to stimulate enzyme trafficking. Rab1a polypeptide has been established to function specifically at the ER-Golgi step of the secretory pathway (Duvernay et al., Cell Signal 17: 1457, 2005). The effect of Rab1a polypeptide was determined in human iPS dopamine neurons derived from reprogrammed fibroblasts of a PD patient (Coriell line ND27760). These cells harbor a triplication mutation in the genomic region containing SNCA which encodes for α-synuclein, leading to overexpression of the protein and lysosomal trafficking deficits. […] Further in this Example, it was determined if Rab1a polypeptide enhances lysosomal function by monitoring cathepsin B activity.
It was also shown in this Example that treatment with the GCase polypeptide activator increased the levels of total GCase protein and increased the post-ER forms, indicating enhancement of flux to the lysosome (FIG. 19B).
Most materials for SDS-PAGE were obtained from Invitrogen (NuPAGE system). Protein lysates were boiled in sample buffer (20 mM Tris, 1% (v/v) glycerol, 180 mM β-mercaptoethanol, 0.003% (w/v) bromophenol blue, 2% (w/v) SDS, pH 6.8), resolved on 4%-12% Bis-Tris polyacrylamide precast gels in a MOPS-SDS running buffer, or 4%-12% Tris-Glycine gels. 10% Tris-Glycine gels were utilized for some GCase polypeptide western blot's (FIGS. 13B, 13D, and 13E, and FIGS. 14C and 14F). […] Blots were blocked in Odyssey blocking buffer (Li-Cor biosciences) containing 0.05% Tween, or 5% non-fat dry milk in TBS-T 0.2%, followed by incubation with primary antibodies (see above for dilutions), and detected with anti-mouse or -rabbit IgG conjugated to IRDye 680 or 800 (1:10,000, Li-Cor biosciences). […] Any nonspecific bands detected were not included in densitometric analyses. […]

cathepsin B = assay: Cathepsin B activity in living transfected Hela cells (fluorescent substrate); type: cell-based; settings: overexpression in transfected Hela cells, versus GFP
Procedure: as §3
In this Example, it was investigated whether enhancement of lysosomal enzyme trafficking through stimulation of the secretory pathway would result in increased lysosomal function and reduction of α-synuclein. Therefore, in this Example the small GTPase Rab1a polypeptide was overexpressed by lentiviral infection in iPS neurons to stimulate enzyme trafficking. […] The effect of Rab1a polypeptide was determined in human iPS dopamine neurons derived from reprogrammed fibroblasts of a PD patient (Coriell line ND27760). […] Further in this Example, it was determined if Rab1a polypeptide enhances lysosomal function by monitoring cathepsin B activity.

[6] = leupeptin-treated WT α-synuclein-expressing neurons

Molecule | T-insoluble α-synuclein (α-synuclein [1]; [6]) | amount of soluble α-synuclein (α-synuclein [1]; [6]) | total α-synuclein immunostaining intensity (α-synuclein [1]; leupeptin-treated compared to control cells) | soluble HMW α-synuclein by SEC (α-synuclein [1]; leupeptin-treated neurons) | neurotoxicity at later time points (primary cortical neurons [2]; >12 dpi) | α-synuclein-mediated neurotoxicity (primary cortical neurons [2]; WT α-synuclein-expressing neurons, 50 μM leupeptin, 7 dpi) | levels of total insoluble proteins, fold increase (total cellular proteins) [fold] | levels of LC3-II (LC3-II) | effect of lysosomal inhibitors on the proteolysis increase by GCase polypeptide overexpression (Hela cells) | proteolysis of long-lived proteins in GCase polypeptide shRNA-treated cells (primary cortical neurons [3]) | percentage of cells with condensed nuclei compared to untreated control cells ([4]; 7 dpi) | percentage of cells containing α-synuclein/LAMP1 colocalized puncta ([4]; leupeptin-treated cells) [%] | α-synuclein levels (α-synuclein [5]) | cathepsin B activity (cathepsin B) | increase in proteolysis compared to GFP control transfected cells (Hela cells; myc-tagged GCase polypeptide expression construct) [%]
CC(=O)N[C@@H](CC(C)C)C(=O)N[C@@H](CC(C)C)C(=O)N[C@H](C=O)CCCNC(=N)N [leupeptin] | increase | no change | increase | not detectable | did result in neurotoxicity | did not enhance | ~2 | comparable increase | completely reversed | did not additively inhibit | did not alter | ~90 |  |  | 
Rab1a polypeptide: small GTPase overexpressed by lentiviral infection or transfection; SEQ ID NO. 13 |  |  |  |  |  |  |  |  |  |  |  |  | dramatic reduction | increase | 
B1 |  |  |  |  |  |  |  |  |  |  |  |  |  | increased | 40

Source: patent publication US9845327B2, “Treatment of proteinopathies” (THE GENERAL HOSPITAL CORPORATION, priority 2011, dated 2017)
